Assay results published in ChEMBL document CHEMBL5308541, “MAIP: An Open-Source Tool to Enrich High-Throughput Screening Output and Identify Novel, Druglike Molecules with Antimalarial Activity” (ACS Med Chem Lett, 2023).

Legend:
Plasmodium falciparum [1] = experiment: Hit confirmation in dose-response curve in NF54 nanoGlo assay, at 72h; type: functional, organism-based, Erythrocyte; set-up: timepoint 72 hour; conditions: erythrocyte
Plasmodium falciparum [2] = experiment: Hit confirmation in dose-response curve in NF54 pLDH assay, at 72h; type: functional, organism-based, Erythrocyte; set-up: timepoint 72 hour; conditions: erythrocyte
Plasmodium falciparum [3] = experiment: Hit confirmation in dose-response curve in Dd2 pLDH assay, at 72h; type: functional, organism-based, Erythrocyte; set-up: timepoint 72 hour; conditions: erythrocyte
Plasmodium falciparum [4] = experiment: Hit confirmation in dose-response curve in NF54 nanoGlo assay, at 12h; type: functional, organism-based, Erythrocyte; set-up: timepoint 12 hour; conditions: erythrocyte
HepG2 [5] = experiment: Hit confirmation in dose-response curve in HepG2 cytotoxicity assay, at 72h; type: toxicity, cell-based, Homo sapiens; set-up: timepoint 72 hour; conditions: hepg2
HepG2 [6] = experiment: Re-testing in dose-response curve in HepG2 cytotoxicity assay, at 72h; type: toxicity, cell-based, Homo sapiens; set-up: timepoint 72 hour; conditions: hepg2
Plasmodium falciparum [7] = experiment: Re-testing in dose-response curve in Dd2 pLDH assay, at 72h; type: functional, organism-based, Erythrocyte; set-up: timepoint 72 hour

Question: With CC(C)c1ccc(-c2nc(CN3CCCCC3)cc(CN3CCCCC3)c2O)cc1 as the compound, how does the IC50 (Plasmodium falciparum [1]) read?
Answer: Its IC50 is 1780 nM.

Question: And the IC50 (Plasmodium falciparum [2])?
Answer: Its IC50 is 2690 nM.

Question: What about the IC50 (Plasmodium falciparum [3]) of the same compound?
Answer: The IC50 was 1580 nM.

Question: And the IC50 (Plasmodium falciparum [4])?
Answer: The IC50 was 3.98 µM.

Question: And the IC50 (HepG2 [5])?
Answer: Its IC50 is > 10 µM.

Question: What about the IC50 (HepG2 [6]) of the same compound?
Answer: The IC50 was > 25 µM.

Question: And the IC50 (Plasmodium falciparum [7]; Plasmodium falciparum, Dd2, Erythrocyte, 72 h)?
Answer: Its IC50 is 949 nM.

Question: And the IC50 (Plasmodium falciparum [7]; erythrocyte)?
Answer: The IC50 was 923 nM.
